Laboratory results reported in patent publication US12286398B2, “Anti-bacterial stilbene derivatives and methods of use” (YALE UNIVERSITY, priority 2019, dated 2025).
Values after ≈ are worked out from the molar mass of the structure shown. Read-outs that look alike come from different tables or passages of the source.

How the values were obtained:
MRSA [1] = assay: Lipid II supplementation rescue of MRSA growth; type: cell-based, Staphylococcus aureus; settings: lethal concentrations of antibiotic, with lipid II in the media
Text: (§1) FIGS. 21A-21D show (FIG. 21A) SYTOX Green fluorescence assay for antibiotic-induced bacterial membrane permeability. Vancomycin was used as a negative control, and daptomycin was used as a positive control. Error bars represent the standard error of the mean across 3 biological replicates. […] Vancomycin was used as a positive control. The UDP-MurNAc-pentapeptide was identified by mass spectrometry, with an [M+H]^+ of 1150.3590. Error bars represent the standard deviation of three biological replicates. […] Lipid II cannot rescue bacteria grown in the presence of ciprofloxacin (an inhibitor of DNA replication). Data from three biological replicates are shown. […] Vancomycin was used as a positive control. Lipid II was boiled to remove the lipid tail, and de-lipidated lipid II was quantified by mass spectrometry, with an [M+H]^+ of 1331.5362. Error bars represent the standard deviation of three biological replicates.
Lipid II is a crucial peptidoglycan building block downstream of UDP-MurNAc-pentapeptide and is the target of several antibiotics, including vancomycin. Bacteria were grown in the presence of lethal concentrations of antibiotics with and without supplementation of lipid II into the media. […] These lipids are the targets of numerous antibiotics. Compounds that bind to lipid II are known to result in its accumulation in cells, while compounds that bind to C55-P or C55-PP result in a reduction in lipid II levels. […] The lipid tail of lipid II can be removed by boiling in acidic conditions, allowing quantification by LC-MS. Following this protocol, an accumulation of a mass matching de-lipidated lipid II when bacteria were treated with either compounds of Formula I or vancomycin (FIG. 21D) was observed. The identity of this molecule was confirmed by tandem mass spectrometry and compared to published fragmentation data. Without being bound by theory, it is believed that compounds of Formula I target the bacterial cell wall by binding to lipid II and preventing its polymerization and cross-linking into peptidoglycan.

MRSA [2] = settings: after 30 days, identical conditions
Text: Fold change in MIC for one culture grown in the presence of sub-inhibitory levels of ciprofloxacin for 30 days is shown as a positive control.
An attempt to culture MRSA mutants resistant to compounds of Formula I was made by subculturing two independent cultures of bacteria continuously in the presence of non-lethal concentrations of 5.

[3] = tested on: methicillin-resistant Staphylococcus aureus (MRSA); assay: Growth inhibition assay, minimum inhibitory concentration against MRSA; type: cell-based; settings: for MIC: Staphylococcus aureus
Method: (§2) Growth Inhibition Assays. Compounds were prepared in DMSO to a concentration of 10 mM. DMSO was used as a vehicle negative control, and vancomycin (MRSA) and ampicillin (VRE) were also prepared as positive controls for minimum inhibitory concentration (MIC) tests. Compounds were tested for antimicrobial activity against MRSA and VRE at 100, 50, 25, 12.5, 6.25, 3.13, 1.56, 0.78, and 0.39 μM. MRSA was grown in tryptic soy broth and VRE was grown in brain heart infusion medium. Overnight cultures of bacteria were diluted to OD600=0.1 and 50 μL of cell culture broth was added to each well. Media (50 μL) containing compound at the appropriate concentration was then added to the cell cultures and the plates were sealed and incubated at 37° C. overnight. Plates were then read for OD600 using a PerkinElmer Envision 2100 multimode plate reader (PerkinElmer, Waltham, MA, USA). […] All samples were tested in triplicate.
(§3) Determination of Minimum Inhibitory Concentration. All compounds were freshly dissolved in DMSO at a stock solution of 10 mM. DMSO (solvent vehicle) was used as a negative control and vancomycin and ampicillin were used as positive controls for MRSA and VRE, respectively. Compounds were dispensed into 96-well plates at 100, 50, 25, 12.5, 6.25, 3.13, 1.56, 0.78, and 0.39 μM. Overnight cultures of MRSA grown in tryptic soy broth and VRE grown in brain heart infusion medium were diluted to OD600 of 0.1, and 50 μL of fresh cell culture broth was added to each well. The plates were sealed and incubated at 37° C. overnight. Plates were then monitored for OD600 using a PerkinElmer Envision 2100 multimode plate reader (PerkinElmer, Waltham, MA, USA).

[4] = tested on: vancomycin-resistant Enterococcus faecalis (VRE); assay: Growth inhibition assay, minimum inhibitory concentration against VRE; type: cell-based
Method: as §2, §3

lipid II in MRSA = assay: Accumulation of lipid II in MRSA, LC-MS of de-lipidated lipid II; type: cell-based, Staphylococcus aureus; settings: compared to DMSO
Text: as §1
Lipid II is a crucial peptidoglycan building block downstream of UDP-MurNAc-pentapeptide and is the target of several antibiotics, including vancomycin. Bacteria were grown in the presence of lethal concentrations of antibiotics with and without supplementation of lipid II into the media. […] These lipids are the targets of numerous antibiotics. […] The lipid tail of lipid II can be removed by boiling in acidic conditions, allowing quantification by LC-MS. […]

[5] = tested on: UDP-MurNAc-pentapeptide in MRSA; assay: Accumulation of cell wall precursor UDP-MurNAc-pentapeptide in MRSA; type: cell-based, Staphylococcus aureus; settings: compared to DMSO
Text: (§4) FIGS. 21A-21D show (FIG. 21A) SYTOX Green fluorescence assay for antibiotic-induced bacterial membrane permeability. Vancomycin was used as a negative control, and daptomycin was used as a positive control. Error bars represent the standard error of the mean across 3 biological replicates. […] Vancomycin was used as a positive control. […] Error bars represent the standard deviation of three biological replicates. […] Data from three biological replicates are shown. […] Vancomycin was used as a positive control. […] Error bars represent the standard deviation of three biological replicates.
(§5) The effects of compounds of Formula I on the bacterial cell wall were thus investigated. […] The effects of compounds of Formula I on cell wall biosynthesis was investigated by looking for accumulation of the cell wall precursor molecule UDP-MurNAc-pentapeptide (FIG. 21B).

MRSA [6] = assay: SYTOX Green fluorescence assay for bacterial membrane permeability; type: cell-based, Staphylococcus aureus
Text: as §4, §5

[7] = Table 6, read-out: Minimal inhibitory concentrations, S. aureus (methicillin resistant)
[8] = Enterococcus faecalis, Table 6, read-out: Minimal inhibitory concentrations, E. faecalis (vancomycin resistant)

| Compound | MIC [3, 7] [µM] | MIC [4, 8] [µM] | antibiotic activity against MRSA (in words) [3] | antibiotic activity against VRE (in words) [4] | further results |
| --- | --- | --- | --- | --- | --- |
| O=C(O)c1cn(C2CC2)c2cc(N3CCNCC3)c(F)cc2c1=O [ciprofloxacin] |  |  |  |  | restoration of MRSA growth by lipid II supplementation (MRSA [1]): not able to rescue bacterial growth; increase in MIC (MRSA [2]): approximately 37 fold |
| CC(C)c1c(O)cc(/C=C/c2ccccc2)cc1O [compound 1, tapinarof, reference compound] | 27 (≈ 6.87 µg/mL) | 51 (≈ 13 µg/mL) |  |  | MIC ([3]; read-out: MIC): 27 µM (≈ 6.87 µg/mL); MIC ([4]; read-out: MIC): 50.5 µM (≈ 12.8 µg/mL) |
| CC(C)c1c(O)cc(C2OC2c2ccccc2)cc1O (stereo not drawn) [compound 2, stilbene epoxide, reference compound] |  |  | little to no activity | little to no activity |  |
| CC(C)C1=C(O)C(=O)C(/C=C/c2ccccc2)=C(c2c(/C=C/c3ccccc3)cc(O)c(C(C)C)c2O)C1=O [compound 5, duotap-520] |  |  |  |  | accumulation of lipid II (de-lipidated lipid II) (lipid II in MRSA): Accumulation; restoration of MRSA growth by lipid II supplementation (MRSA [1]): restore growth; level of UDP-MurNAc-pentapeptide [5]: Accumulation |
| Oc1cc(O)cc(/C=C/c2ccccc2)c1 [compound 6, pinosylvin, reference compound] | > 100 | > 100 |  |  |  |
| Oc1ccc(C=Cc2cc(O)cc(O)c2)cc1 [compound 7, resveratrol, reference compound] | 25 (≈ 5.71 µg/mL) | 14 (≈ 3.2 µg/mL) |  |  |  |
| O=C1C=C(O)C(=O)C(/C=C/c2ccccc2)=C1c1c(O)cc(O)cc1/C=C/c1ccccc1 [compound 8, duotap-436] | 4 (≈ 1.75 µg/mL) | 6 (≈ 2.62 µg/mL) | significantly enhanced antibiotic activity compared to 6 | significantly enhanced antibiotic activity compared to 6 | activity against VRE [4]: 6 µg/mL |
| O=C1C=C(O)C(=O)C(/C=C/c2ccc(O)cc2)=C1c1c(O)cc(O)cc1/C=C/c1ccc(O)cc1 [compound 9, duotap-468] | > 100 | > 100 | no enhancement of activity | no enhancement of activity |  |
| CCCCCCCCCC(=O)N[C@@H](Cc1c[nH]c2ccccc12)C(=O)N[C@H](CC(N)=O)C(=O)N[C@@H](CC(=O)O)C(=O)N[C@@H]1C(=O)NCC(=O)N[C@@H](CCCN)C(=O)N[C@@H](CC(=O)O)C(=O)N[C@H](C)C(=O)N[C@@H](CC(=O)O)C(=O)NCC(=O)N[C@H](CO)C(=O)N[C@@H]([C@H](C)CC(=O)O)C(=O)N[C@@H](CC(=O)c2ccccc2N)C(=O)O[C@@H]1C [daptomycin] |  |  |  |  | membrane permeability (MRSA [6]): increase in membrane permeability |
| CN[C@H](CC(C)C)C(=O)N[C@H]1C(=O)N[C@@H](CC(N)=O)C(=O)N[C@H]2C(=O)N[C@H]3C(=O)N[C@H](C(=O)N[C@H](C(=O)O)c4cc(O)cc(O)c4-c4cc3ccc4O)[C@H](O)c3ccc(c(Cl)c3)Oc3cc2cc(c3O[C@@H]2O[C@H](CO)[C@@H](O)[C@H](O)[C@H]2O[C@H]2C[C@](C)(N)[C@H](O)[C@H](C)O2)Oc2ccc(cc2Cl)[C@H]1O [vancomycin, reference compound] |  |  |  |  | accumulation of lipid II (de-lipidated lipid II) (lipid II in MRSA): accumulation; restoration of MRSA growth by lipid II supplementation (MRSA [1]): restored MRSA growth to antibiotic-free levels; level of UDP-MurNAc-pentapeptide [5]: significant increase |
| lumiquinone A [compound 3, reference compound] |  |  | little to no activity | little to no activity |  |
